Results reported in PMC4961401 (PLoS ONE, 2016).
Entries after “also recorded” stand apart in the source; their conditions may differ. Read-outs that look alike come from different tables or passages of the source.

What was measured:
A549 cells [1] = assay: MTT cell proliferation assay, A549; format: cell-based; conditions: Homo sapiens, read-out: IC50, cell viability (MTT)
Description: (§2) The human lung cancer A549, NCI-H460, NCI-H522 and NCI-H1299 cell lines were purchased from the Cell Resource Center of Shanghai Institutes for Biological Sciences, Chinese Academy of Sciences (Shanghai, P.R. China).
(§3) Cell proliferation was assessed using a colorimetric MTT assay as described previously [10]. […] After treatment, the viability of cells was evaluated by checking the absorbance at 570 nm.

NCI-H460 cells = assay: MTT cell proliferation assay, NCI-H460; format: cell-based; conditions: Homo sapiens, NCI-H460, 72 h, read-out: IC50 values, inhibiting proliferation
Description: as §2, §3

NCI-H522 cells = assay: MTT cell proliferation assay, NCI-H522; format: cell-based; conditions: Homo sapiens; NCI-H522, 72 h treatment; read-out: IC50 values, inhibiting proliferation
Description: as §2, §3

NCI-H1299 cells = assay: MTT cell proliferation assay, NCI-H1299; format: cell-based; conditions: Homo sapiens; NCI-H1299, 72 h treatment; read-out: IC50 values, inhibiting proliferation
Description: as §2, §3

A549 tumor xenografts = assay: Human A549 tumor xenograft in nude mice; format: in vivo, Balb/c-nu-nu mice; conditions: i.p., qd
Description: Male nude immunodeficient Balb/c-nu-nu mice, aged 6–7 weeks were purchased from the Shanghai Experimental Animal Center and housed in accordance with protocols approved by the Shanghai Institute of Materia Medica, Chinese Academy of Sciences. Generally, on day 0, A549 cells (8×10^6 cells) suspended in 0.1 mL of PBS were mixed with 0.1 mL Matrigel basement membrane matrix (BD Biosciences) and then inoculated s.c. in the right flank of each mouse. Tumors were allowed to reach 100–300 mm^3 in size before treatments were adminstered. In the animal experiment, the tumor size was measured every 3–4 days using calipers and the tumor volume was calculated using the standard formula, width^2×length/2. Body weight was measured daily.
Two experiments using nude mice with A549 tumor xenografts were conducted. In the first experiment, we tried to compare the anti-cancer effects of BF and BF211 at the same concentrations. Briefly, 12 days after inoculation, the mice were randomly divided into 6 groups (6 mice in each group) and began treatment with the vehicle control (natural saline, i.p., qd); a positive control (rapamycin, 10 mg/kg, i.v., once a week); BF at 0.8 mg/kg, i.p., qd; BF at 0.4 mg/kg for 7 days, which was then increased to 1.6 mg/kg for 9 days, i.p., qd; BF211 at 0.8 mg/kg, i.p., qd; BF211 at 0.4 mg/kg for 7 days, which was then increased to 1.6 mg/kg for 9 days, i.p., qd. In the second experiment, the anti-cancer effects of BF211 were determined at higher concentrations. Briefly, 15 days after inoculation, mice were randomly divided into 5 groups (10 mice in each group) and started treatment with the vehicle control (i.p., qd); a positive control (rapamycin, 10 mg/kg, i.v., once a week); BF211 at 2 mg/kg, i.p., qd; BF211 at 4 mg/kg, i.p., qd; BF211 at 6 mg/kg, i.p., qd. No mice died during this experimental period, and all animals were euthanized by CO2 inhalation at the end of the experiment.

[2] = target: recombinant extracellular portion of human Na+/K+-ATPase α1 subunit (Homo sapiens, UniProt P05023); assay: SPR (Biacore 3000) binding, α1 subunit
Description: (§4) The recombinant extracellular portion of human Na+/K+-ATPase α1 subunit (M1-M2, M3-M4, M5-M6, M7-M8 and M9-M10) was expressed as a His-fusion protein using Escherichia coli, and purified by affinity chromatography. […] The BamH I-Hind III fragment of the gene was subcloned into a pET-32b expression vector (Novagen) and transformed into E. coli BL21 (DE3) cells (Novagen). The BL21 transformants were cultivated in LB medium with ampicillin to an A600 nm of 0.8 at 37°C. Expression was induced by adding isopropyl β-D-thiogalactopyranoside (IPTG) to a final concentration of 10 mM, and incubated overnight at 20°C. The fusion protein containing a His-tag was isolated from the bacterial lysates by Ni^2+-chelation affinity chromatography using a Bio-Scale™ Mini Profinity™ IMAC Cartridge (Bio-Rad). Finally, the recombinant protein was desalted using a Bio-Scale™ Mini Bio-Gel P-6 Desalting Cartridge (Bio-Rad). The recombinant extracellular portions of the α2 and α3 subunits of human Na+/K+-ATPase were also expressed and purified using similar methods.
(§5) Briefly, for the SPR assay, the α1, α2 or α3 subunit protein was immobilized on a CM5 sensor chip as a ligand with N-ethyl-N’-(3-dimethylaminopropyl) carbodiimide (EDC) and N-hydroxysuccinimide (NHS) according to standard primary amine-coupling procedures. […] HBS-EP (10 mM HEPES, 150 mM NaCl, 3 mM EDTA, and 0.005% (v/v) surfactant P20, pH 7.4) was used as the running buffer. The equilibration of the baseline was performed by a continuous flow of HBS-EP through the chip surface for 1 to 2 h. The Biacore data were collected at 25°C with HBS-EP as the running buffer at a constant flow of 30 μL/min. […] The binding responses were recorded continuously in response units (RU) at a frequency of 1 Hz in sensorgrams and presented as a function of time.

[3] = target: recombinant extracellular portion of human Na+/K+-ATPase α2 subunit (Homo sapiens, UniProt P50993); assay: SPR (Biacore 3000) binding, α2 subunit
Description: as §4, §5

[4] = target: recombinant extracellular portion of human Na+/K+-ATPase α3 subunit (Homo sapiens, UniProt P13637); assay: SPR (Biacore 3000) binding, α3 subunit
Description: as §4, §5

[5] = test system: porcine cortex Na+/K+-ATPase; assay: Na+/K+-ATPase activity (Pi liberated from ATP); format: biochemical; conditions: for inhibition of the activity of porcine cortex Na+/K+-ATPase: different concentrations, 1 h incubation
Description: The activity of Na+/K+-ATPase was determined by measuring the amount of inorganic phosphate (Pi) liberated from ATP, as described previously. Briefly, a commercial Na+/K+-ATPase from porcine cerebral cortex (Sigma-Aldrich, USA) was incorporated into a reaction mixture containing 1 mM ATP, 5 mM MgCl2, 80 mM NaCl, 20 mM KCl, and 40 mM Tris-HCl (pH 7.8). The enzymatic reaction was terminated by adding trichloroacetic acid after the incubation period (1 h). After centrifugation, the supernatant was diluted with deionized water and then the color development reagent provided by the QuantiChrom™ Phosphate Assay Kit (BioAssay Systems, USA) was added. After 30 min of incubation at room temperature, the color intensity was measured at 620 nm on GENIOS reader (TEACAN, Switzerland). The Na+/K+-ATPase energy transducing activity was expressed as μmol Pi liberated from ATP by 1 mg of Na+/K+-ATPase in 1 h.

A549 cells [6] = assay: Annexin V/PI flow cytometry analysis of apoptosis; format: cell-based, human; conditions: 24 h treatment
Description: Flow cytometric analysis of the level of apoptosis was conducted using Alexa Fluor 488 Annexin V & PI /Dead Cell Apoptosis Kit (Invitrogen) according to the manufacturer’s instructions. Briefly, after the 24 h treatment with BF or BF211 at different concentrations, the cells were collected, washed with PBS and resuspended in binding buffer. Then, the cells were incubated with Annexin V-FITC and propidium iodide for 15 min in the dark at room temperature, and flow cytometric analysis was conducted. Data analysis was performed with the CellQuest software.

A549 cells [7] = assay: Free intracellular Ca2+ level (Fluo-3 AM, flow cytometry); format: cell-based, human; conditions: 50 nM
Description: The level of intracellular free Ca2+ in A549 cells was determined using the fluorescent dye Fluo-3 AM (S1056, Beyotime Biotechnology, Shanghai, China), which can cross the cell membrane and be cleaved into Fluo-3 by intracellular esterase. […] After being exposed to 50 nM BF or BF211 for 0.5, 1, 10, 30, 60 and 180 min, the cells were harvested, washed twice with PBS, and then incubated with Fluo-3 AM (5 μM) in the dark at 37°C for 1 h. After washing twice with PBS to remove the remaining extracellular probe, the cells were submitted to flow cytometric analysis with an excitation wavelength of 488nm. The quantification was conducted using the FlowJo software program based on the mean values of the peak fluorescent intensity.

Src = assay: Western blot of Src activation (p-Src); format: cell-based, human; conditions: A549 cells, 50 nM
Description: (§1) Western blot assays were conducted as described previously. Briefly, the cellular protein samples were denatured by mixing with equal volume of 2 × sample loading buffer and then boiling at 100°C for 5 min. An aliquot (50 μg as protein) of the supernatant was loaded onto a 12% SDS gel, separated electrophoretically, and transferred to a Nitrocellulose membrane (Bio-Rad). After the membrane was incubated with 10 mM TBS with 20% Tween 20 and 5% dehydrated skim milk to block nonspecific protein binding, the membrane was incubated with primary antibodies overnight at 4°C. The primary antibodies used for detection of α1 and α3 subunit of Na+,K+-ATPase were rabbit polyclonal antibody against human ATP1A1 (55187, Proteintech, 1:1000) and ATP1A3 (sc-374050, Santa Cruz Biotechnology, 1:1000), respectively. Other primary antibodies including rabbit polyclonal antibody against human Src (#2109S, 1:1000), phosphor-Src(Tyr416) (#6943S, 1: 1000); PI3K p85 (#4257P, 1:1000), phosphor-PI3K p85(Tyr458)/p55(Tyr199) (#4228P, 1: 600), Akt (#9272, 1:1000), phosphor-Akt(Ser473) (#4060S, 1:800), Bax (#2772S, 1:1000), Pro-caspase-9 (#9502S, 1:800), Caspase-3 (#9662S, 1:800); PARP (#9542, 1:1000) and GAPDH (#2118, 1:1000) were all purchased from Cell Signaling Technology. After TBS washes, blots were then incubated with HRP-linked goat anti-rabbit IgG (#7074, 1:1000) secondary antibody for 2 h at room temperature at a 1:1000 dilution and then visualized using chemiluminescence (Pierce Biotechnology, Rockford, IL, USA).

caspase-3, PARP = assay: Western blot of caspase-3 activation and PARP cleavage; format: cell-based, human; conditions: A549 cells, 24 h, different concentrations
Description: as §1, with “After TBS washes, blots were then incubated with HRP-linked goat anti-rabbit IgG (#7074, 1:1000) secondary antibody for 2 h at room temperature at a 1:1000 dilution and then visualized using chemiluminescence (Pierce Biotechnology, Rockford, IL, USA).” left out

caspase-3 = assay: Caspase-3 activity assay (Ac-DEVD-pNA); format: cell-based, human; conditions: A549 cells, 24 h, different concentrations
Description: The activity of caspase-3 was determined using a caspase-3 activity assay kit (C1115, Beyotime Biotechnology, Shanghai, China) according to the manufacturer's instructions. Briefly, after treatment with BF or BF211 at different concentrations for 24 h, the A549 cells were collected, washed with PBS and incubated with lysis buffer on ice for 15 min. After centrifugation at 2,000 g for 15 min at 4°C, the cell lysates were collected, and their protein concentrations were determined using the A280 method with a UV-Vis Spectrophotometer Q5000 (Quawell Technology, San Jose, CA, USA). Cell lysates (50 μg protein) were then added to reaction buffer containing the caspase-3 substrate Ac-DEVD-p-nitroanilide (2 mM) in 96-well microtiter plates and incubated at 37°C for 4 h. The caspase-3 activity in the samples was quantified by detecting the release of p-nitroanilide from Ac-DEVD-p-nitroanilide with a microplate spectrophotometer at 405 nm. The caspase-3 activity was expressed as the fold of enzyme activity in comparison with the control.

ICR mice [8] = conditions: single dose i.p., Bliss method
Description: (§6) Therefore, totally 180 mice were used in the study of acute toxicity. […] During the 3 h observation period and other monitoring time periods, animals found in a moribund condition (head and body lying flat on cage bedding with little or no response to stimuli) and animals showing severe pain or severe distress (agonal breathing, intermittent gasping or both) were humanely killed. […] At the end of the experiment, all surviving animals were euthanized by CO2 inhalation. […] The LD50 value was calculated according to the Bliss method.

tumor cell lines = test system: tumor cell lines; set-up: method as in PMID 26827628; conditions: broad spectrum of tumor cell lines; ref [8]; cited from earlier work
in vivo = conditions: ICR, mouse, ip
Description: as §6

ICR mice [9] = conditions: i.p., ref [14]; cited from earlier work
[10] = concentrations less than 2 mg/kg (0.8 mg/kg, or 0.4 then 1.6 mg/kg)

Sequence of recombinant extracellular portion of human Na+/K+-ATPase α3 subunit (P13637 with tags, fused parts or gaps): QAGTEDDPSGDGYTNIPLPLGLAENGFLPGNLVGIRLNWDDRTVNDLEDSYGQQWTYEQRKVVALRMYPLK
Sequence of recombinant extracellular portion of human Na+/K+-ATPase α2 subunit (P50993 with tags, fused parts or gaps): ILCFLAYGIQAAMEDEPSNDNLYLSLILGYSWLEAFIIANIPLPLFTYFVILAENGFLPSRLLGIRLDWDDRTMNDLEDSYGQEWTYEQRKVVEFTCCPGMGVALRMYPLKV

C[C@]12CC[C@H](OC(=O)NC3CCNCC3)C[C@H]1CC[C@@H]1[C@@H]2CC[C@]2(C)[C@@H](c3ccc(=O)oc3)CC[C@]12O [BF211]
IC50 (A549 cells [1]; 24 h treatment): 6.76 ± 0.41 nM
IC50 (A549 cells [1]; 48 h treatment): 4.01 ± 2.68 nM
IC50 (NCI-H460 cells): 68 ± 6.91 nM
IC50 (NCI-H522 cells): 48.3 ± 0.69 nM
IC50 (NCI-H1299 cells): 40.1 ± 4.04 nM
effect on tumor growth (A549 tumor xenografts; 6 mg/kg): almost totally blocked; also recorded: almost totally inhibited
effect on growth of tumor xenografts (A549 tumor xenografts; 2, 4, and 6 mg/kg): concentration-dependent inhibitive effects
effect on growth of tumor xenografts (A549 tumor xenografts; 4 or 6 mg/kg): strongly inhibited
effect on tumor growth (A549 tumor xenografts; [10]): weak inhibitive effects
kon ([2]; read-out: Association (ka)): 17700 M⁻¹ s⁻¹
koff ([2]; read-out: Dissociation (kd)): 0.0526 s⁻¹
Kd ([2]; α1, SPR, KD = kd/ka, read-out: Equilibrium dissociation (KD)): 2960 nM
kon ([3]; read-out: Association (ka)): 9820 M⁻¹ s⁻¹
koff ([3]; read-out: Dissociation (kd)): 0.0441 s⁻¹
Kd ([3]; α2, SPR, KD = kd/ka, read-out: Equilibrium dissociation (KD)): 4490 nM
kon ([4]; 25°C, 1:1 Langmuir model, read-out: Association (ka)): 30700 M⁻¹ s⁻¹
koff ([4]; 25°C, 1:1 Langmuir model, read-out: Dissociation (kd)): 0.116 s⁻¹
Kd ([4]; KD = kd/ka, read-out: Equilibrium dissociation (KD)): 3780 nM
inhibition of Na+/K+-ATPase activity compared with BF ([5]; at some concentrations, such as 0.1 μM): slightly weaker than BF
inhibition of the activity of porcine cortex Na+/K+-ATPase [5]: concentration-dependent
induction of apoptosis (A549 cells [6]): more strongly induced apoptosis than BF
time of another (second) peak of intracellular Ca2+ level (A549 cells [7]): 1800 s
time of peak intracellular Ca2+ level (A549 cells [7]): 0.5 min
level of phosphorylated Src (p-Src) (Src; 1 h after treatment): significant increase
level of phosphorylated Src (p-Src) (Src; 3 h after treatment): significant increase
activation of caspase-3 and cleavage of PARP (caspase-3, PARP): stronger than that of BF at high concentrations
enzyme activity of caspase-3 (caspase-3): significantly stronger than that of BF
LD5 (95% confidence) (ICR mice [8]; female mice): 12.03 mg/kg (10.04~14.41 mg/kg)
LD95 (95% confidence) (ICR mice [8]; female mice): 27.55 mg/kg (22.56~33.66 mg/kg)
LD5 (95% confidence) (ICR mice [8]; male mice): 9.52 mg/kg (7.81~11.61 mg/kg)
LD95 (95% confidence) (ICR mice [8]; male mice): 22.85 mg/kg (18.89~27.64 mg/kg)
IC50 values, anticancer activities (tumor cell lines): nanomolar level
LD50 (in vivo; female): 18.2 mg/kg
LD50 (in vivo; male): 14.8 mg/kg

C[C@]12CC[C@H](O)C[C@H]1CC[C@@H]1[C@@H]2CC[C@]2(C)[C@@H](c3ccc(=O)oc3)CC[C@]12O [BF, Bufalin, reference compound]
IC50 (A549 cells [1]; 48 h treatment): 10.2 ± 1.01 nM
IC50 (NCI-H460 cells): 114 ± 11.2 nM
IC50 (NCI-H522 cells): 98.7 ± 2.76 nM
IC50 (NCI-H1299 cells): 88.3 ± 11.9 nM
effect on tumor growth (A549 tumor xenografts; [10]): weak inhibitive effects
inhibition of the activity of porcine cortex Na+/K+-ATPase [5]: concentration-dependent
induction of apoptosis (A549 cells [6]): could induce apoptosis
time of peak intracellular Ca2+ level (A549 cells [7]): 0.5 min
level of phosphorylated Src (p-Src) (Src; 1 h after treatment): significant increase
activation of caspase-3 and cleavage of PARP (caspase-3, PARP): could induce the activation of caspase-3 and the cleavage of PARP
enzyme activity of caspase-3 (caspase-3): increase in the activity of caspase-3
LD50 (ICR mice [9]): 2.2 mg/kg
